The record followed here is patent US8765786B2, “1-substituted indazole derivative” (Dainippon Sumitomo Pharma Co., Ltd., priority 2012, dated 2014).

The assay deals with T1, human α7 nAChR (Homo sapiens, UniProt P36544).
T1 construct: expressed in transfected cells; host or cells: GH4C1 cells derived from rat pituitary (ATCC CCL-82.2)
In words: Evaluation of PAM activity with human α7 nACh receptor stably expressing cells (aequorin luminescence, FDSS7000). Particulars: for α7PAM (%) @ 10 μmol/L / activity at 10 µM: test compound 10 μmol/L, ACh added at EC20, ratio of RLU (Max-Min) of test wells to control wells; for activity at 10 µM: read-out: α7PAM (%) @ 10 μmol/L; for PAM activity for α7 nAChR: result in words, ratio of RLU (Max-Min) to control wells, ACh EC20. It is filed as cell-based. The text has this:
Human α7 nAChR stably expressing cells were generated and cultured. In detail, GH4C1 cells derived from rat pituitary (cat#CCL-82.2, ATCC, USA) were used as a host cell. PcDNA3.1Zeo vector containing a nucleotide sequence encoding a protein GenBank BAC81731 and pcDNA3.1 vector containing human α7 nAChR gene (cat#V790-20, invitrogen, Carlsbad, Calif., USA) were transfected to the cells to give aequorins and human α7 nAChR stably expressing cells respectively. The aequorins and human α7 nAChR stably expressing cells were screened with Zeocin (cat#R25001, invitrogen, Carlsbad, Calif., USA) and Geneticin (cat #10131-027, invitrogen, Carlsbad, Calif., USA) respectively.
The cells were cultured in F-10 Nutrient Mixture (Ham) medium (cat #11550-043, invitrogen, Carlsbad, Calif., USA) containing 2.5% fetal bovine serum (cat #2917354, ICN Biomedicals, Inc, USA), 15% inactivated horse serum (cat #26050-088, invitrogen, Carlsbad, Calif., USA), 1 μg/mL Geneticin, and 5 μg/mL Puromycin (cat #14861-84, invitrogen, Carlsbad, Calif., USA), in a Collagen Type 1-coated dish (cat #4030-010, iwaki, Tokyo, Japan). During the culture, the medium was replaced with fresh medium in every 2 to 3 days, and the cells were treated with TrypLE Express (cat #45604-021, invitrogen, Carlsbad, Calif., USA) to collect them in every 7 days. Thus, the cells were subcultured.
7 Days after subculturing, the cells were treated with TrypLE Express to collect them when they were about 80% confluent. The cells were suspended in a reaction medium containing Hanks (cat #14065-056, invitrogen, Carlsbad, Calif., USA)/20 mmol/L Hepes (cat #15630-080, invitrogen, Carlsbad, Calif., USA), Buffer (pH 7.4), F-10 Nutrient Mixture (Ham), and 0.1 mg/mL Geneticin, and the suspension was seeded in a 384-well plate (cat #781090, Greiner, Germany) at 20000 cells/25 μL per well.
On the next day after seeding, Viviren (cat#E649X, Promega, Madison, Wis., USA) was added to the medium so that the final concentration could be 4 μmol/L (15 μL/well). The plates were centrifuged and then placed in the dark for 4 hours at room temperature.
Each of the test compounds was dissolved in DMSO to prepare each test sample at a concentration of 1000-fold the final concentration. To the solution was added Hanks/20 mM HEPES/0.2% BSA (cat#A3803, Sigma, St. Louis, Mo., USA), and the concentration was adjusted to 6-fold the final concentration.
FDSS7000 (Hamamatsu Photonics) was used to detect the luminescence signal evoked by α7 nAChR stimulation. The cells and a luminescent substrate were put on a plate, and the test sample was added thereto. […] After the addition of ACh, the luminescence signal (the central wavelength: 465 nm) was measured for 138 seconds to calculate RLU (Max-Min). The ratio of the RLU (Max-Min) of the test-compound-containing wells to that of the control wells was defined as PAM activity.

T1 sequence (P36544 23-502): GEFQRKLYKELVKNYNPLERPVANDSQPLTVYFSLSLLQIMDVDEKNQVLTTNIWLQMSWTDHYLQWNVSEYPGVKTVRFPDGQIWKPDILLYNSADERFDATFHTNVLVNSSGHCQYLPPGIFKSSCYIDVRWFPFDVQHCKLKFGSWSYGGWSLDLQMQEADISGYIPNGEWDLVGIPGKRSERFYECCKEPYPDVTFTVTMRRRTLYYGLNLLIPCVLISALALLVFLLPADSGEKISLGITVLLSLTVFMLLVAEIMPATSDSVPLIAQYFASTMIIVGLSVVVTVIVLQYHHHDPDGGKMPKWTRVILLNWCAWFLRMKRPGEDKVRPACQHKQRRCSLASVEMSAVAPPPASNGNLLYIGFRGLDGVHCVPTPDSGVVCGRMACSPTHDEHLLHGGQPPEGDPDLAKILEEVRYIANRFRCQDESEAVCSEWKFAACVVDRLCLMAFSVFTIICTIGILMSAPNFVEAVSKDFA

Consider `CCOc1ccc2c(cnn2C2CCN(C(=O)NC3CCC(F)(F)CC3)CC2)c1C` [Example 281], for which the “α7PAM (%) @ 10 μmol/L” value was determined as 197%. Regarding `CCc1nn(C2CCN(C(=O)NC3CCOCC3)CC2)c2ccc(OC)cc12` [Example 244], the “α7PAM (%) @ 10 μmol/L” value was found to be 324%. Still for that read-out and setting: under `CCOc1cccc2c1cnn2C1CCN(C(=O)NC2CCC(F)(F)CC2)CC1` [Example 192] stands 699%. On to `CO[C@H]1CC[C@H](NC(=O)N2CCC(n3ncc4cc(OC(F)(F)F)ccc43)CC2)CC1` [Example 219, N-(trans-4-methoxycyclohexyl)-4-[5-(trifluoromethoxy)-1H-indazol-1-yl]piperidine-1-carboxamide], for which the activity at 10 µM was 238%. With `CCOc1cccc2c1cnn2C1CCN(C(=O)N[C@H]2CC[C@@H](OC)CC2)CC1` [Example 184], the “α7PAM (%) @ 10 μmol/L” value stood at 200%. Take `CCOc1ccc2c(cnn2C2CCN(C(=O)c3ccc(F)cn3)CC2)c1` [Example 114]: the “α7PAM (%) @ 10 μmol/L” value was 189%.

For `CCc1ccc2c(cnn2[C@H]2CC[C@@H](NC(=O)[C@H]3CC[C@H](OC)CC3)CC2)c1` [Example 122], the “α7PAM (%) @ 10 μmol/L” value is listed as 410%.

On to `COC(C)c1cccc2c1cnn2C1CCN(C(=O)NC2CCC(F)(F)CC2)CC1` (stereo not shown) [Example 231], for which the “α7PAM (%) @ 10 μmol/L” value was 647%. As for `[2H]C([2H])([2H])c1ccc2c(cnn2C2CCN(C(=O)NC3CCC(OCC)CC3)CC2)c1` (stereo not shown) [Example 314], the “α7PAM (%) @ 10 μmol/L” value came to 949%.

For the compound `COc1c(C2CC2)ccc2c1cnn2C1CCN(C(=O)NC2CCOCC2)CC1` [Example 303], the “α7PAM (%) @ 10 μmol/L” value was 1058%.

As to `COCCCc1ccc2c(cnn2C2CCN(C(=O)NC3CCCC3)CC2)c1` [Example 31], the “α7PAM (%) @ 10 μmol/L” value was 1191%.

As to `CC(=O)N1CCC(NC(=O)N2CCC(n3ncc4cc(C5CC5)ccc43)CC2)CC1` [Example 203], the “α7PAM (%) @ 10 μmol/L” value was found to be 271%. Take `COC1CCC(NC(=O)N2CCC(n3ncc4cc(Br)ccc43)CC2)CC1` (stereo not shown) [Example 71]: the “α7PAM (%) @ 10 μmol/L” value came to 763%. Regarding `CCc1ccc2c(c1)c(OC)nn2C1CCN(C(=O)NC2CCC(F)(F)CC2)CC1` [Example 149], the “α7PAM (%) @ 10 μmol/L” value worked out at 1053%. As for `CCc1cnc2c(cnn2C2CCN(C(=O)NC3CCC(F)(F)CC3)CC2)c1` [Example 99], the “α7PAM (%) @ 10 μmol/L” value worked out at 755%. Regarding `COCCc1ccc2c(cnn2C2CCN(C(=O)NC3CCC(F)(F)CC3)CC2)c1` [Example 239], the “α7PAM (%) @ 10 μmol/L” value came out at 485%. Still for that read-out and setting: the figure for `CCc1ccc2c(cnn2C2CCN(C(=O)C3CCC(F)(F)CC3)CC2)c1` [Example 113] is 654%.

As to `Cc1ccc2c(cnn2C2CCN(C(=O)N[C@@H]3CCCC3(F)F)CC2)c1` [Example 81, (R) —N-(2,2-difluorocyclopentyl)-4-(5-methyl-1H-indazol-1-yl)piperidine-1-carboxamide], the activity at 10 µM stood at 819%. Regarding `CCc1ccc2c(c1)c(OC(F)F)nn2C1CCN(C(=O)NC2CCOCC2)CC1` [Example 209], the “α7PAM (%) @ 10 μmol/L” value is 266%. As for `CCc1c(OC)ccc2c1cnn2C1CCN(C(=O)NC2CCOCC2)CC1` [Example 289], the “α7PAM (%) @ 10 μmol/L” value came to 255%.

As to `CCc1ccc2c(cnn2[C@H]2CC[C@@H](C(=O)NC3CCC(F)(F)CC3)CC2)c1` [Example 6, cis-N-(4,4-difluorocyclohexyl)-4-(5-ethyl-1H-indazol-1-yl)cyclohexanecarboxamide], the activity at 10 µM was determined as 285%. Consider `[2H]C([2H])([2H])O[C@H]1CC[C@H](NC(=O)N2CCC(n3ncc4cc(C(F)(F)F)ccc43)CC2)CC1` [Example 178, N-{trans-4-[(^2H3)methoxy]cyclohexyl}-4-[5-(trifluoromethyl)-1H-indazol-1-yl]piperidine-1-carboxamide], for which the “α7PAM (%) @ 10 μmol/L” value is listed as 524%.

In the case of `O=C(NC1CCOCC1)N1CCC(n2ncc3cc(C4CC4)ccc32)CC1` [Example 75], the “α7PAM (%) @ 10 μmol/L” value was found to be 621%. On the same count and under the same terms, under `O=C(NC1CCC(F)(F)CC1)N1CCC(n2ncc3cc(-c4cccnc4)ccc32)CC1` [Example 196] stands 229%; under `O=C(NC1CCC(OC(F)F)CC1)N1CCC(n2ncc3cc(C4CC4)ccc32)CC1` (stereo not shown) [Example 205], 1187%. Consider `COc1ccc2c(cnn2C2CCN(C(=O)N[C@@H]3CCCCC3(F)F)CC2)c1` [Example 85], for which the “α7PAM (%) @ 10 μmol/L” value is 1081%. With `COCC1CCC(NC(=O)N2CCC(n3ncc4cc(F)ccc43)CC2)CC1` (stereo not shown) [Example 236], the “α7PAM (%) @ 10 μmol/L” value came to 331%. Regarding `[2H]C([2H])([2H])c1ccc2c(cnn2C2CCN(C(=O)NC3CCC(F)(F)CC3)CC2)c1` [Example 311], the “α7PAM (%) @ 10 μmol/L” value was 1393%.

With `COCC1CCC(NC(=O)N2CCC(n3ncc4cc(C5CC5)ccc43)CC2)CC1` (stereo not shown) [Example 221], the “α7PAM (%) @ 10 μmol/L” value is reported as 1942%. Consider `CC(C)Oc1cccc2c1cnn2C1CCN(C(=O)NC2CCCCC2)CC1` [Example 180], for which the “α7PAM (%) @ 10 μmol/L” value is 274%.

As for `CCc1cccc2c1cnn2C1CCN(C(=O)N[C@H]2CC[C@H](OC(F)F)CC2)CC1` [Example 159], the “α7PAM (%) @ 10 μmol/L” value turned out to be 187%. On to `Cc1ccc2c(cnn2C2CCN(C(=O)NC3CCC(F)(F)CC3)CC2)c1` [Example 13, N-(4,4-difluorocyclohexyl)-4-(5-methyl-1H-indazol-1-yl)piperidine-1-carboxamide], for which the “PAM activity for α7 nAChR” value is listed as “stronger PAM activity than others”. Consider `CCOc1nn(C2CCN(C(=O)NC3CCC(OC)CC3)CC2)c2ccc(CC)cc12` (stereo not shown) [Example 57], for which the “α7PAM (%) @ 10 μmol/L” value is listed as 382%.

Take `CCc1ccc2c(cnn2C2CCN(C(=O)NC3CCC(OC)CC3)CC2)c1` (stereo not shown) [Example 92]: the “α7PAM (%) @ 10 μmol/L” value came to 356%.

With `[2H]C([2H])([2H])Oc1ccc2c(cnn2C2CCN(C(=O)NC3CCCCC3)CC2)c1` [Example 324], the “α7PAM (%) @ 10 μmol/L” value is 1352%. For the compound `CCOc1ccc2c(cnn2C2CCN(C(=O)NC3CCCC3)CC2)c1` [Example 17], the “PAM activity for α7 nAChR” value is “stronger PAM activity than others” and the “α7PAM (%) @ 10 μmol/L” value is on record as 2469%. With `Cc1ccc2c(cnn2C2CCN(C(=O)N[C@@H]3CCCCC3(F)F)CC2)c1` [Example 78, (R)—N-(2,2-difluorocyclohexyl)-4-(5-methyl-1H-indazol-1-yl)piperidine-1-carboxamide], the activity at 10 µM amounted to 987%. `CC(C)c1ccc2c(cnn2C2CCN(C(=O)NC3CCOCC3)CC2)c1` [Example 14]: the “α7PAM (%) @ 10 μmol/L” value was 728%. Turning to `COCc1cccc2c1cnn2C1CCN(C(=O)NC2CCCCC2)CC1` [Example 165], the “α7PAM (%) @ 10 μmol/L” value is reported as 442%. Still for that read-out and setting: under `CCOc1c(C)ccc2c1cnn2C1CCN(C(=O)NC2CCOCC2)CC1` [Example 273] stands 341%. Still for that read-out and setting: the figure for `CCc1ccc2c(c1)c(OC(C)C)nn2C1CCN(C(=O)NC2CCC(OC)CC2)CC1` (stereo not shown) [Example 59] is 433%; for `CCOc1ccc2c(cnn2C2CCN(C(=O)C3CCCC3)CC2)c1` [Example 110] it is 291%; for `COCC(C)c1ccc2c(cnn2C2CCN(C(=O)NC3CCC(F)(F)CC3)CC2)c1` (stereo not shown) [Example 252] it is 364%. Turning to `[2H]C([2H])([2H])O[C@H]1CC[C@H](NC(=O)N2CCC(n3nc(C4CCOCC4)c4cc(C)ccc43)CC2)CC1` [Example 316], the “α7PAM (%) @ 10 μmol/L” value came to 807%. On the same count and under the same terms, the figure for `CCc1nn(C2CCN(C(=O)NC3CCC(F)(F)CC3)CC2)c2ccc(OC)cc12` [Example 241] is 358%; for `COCC1CCC(NC(=O)N2CCC(n3ncc4cc(Cl)ccc43)CC2)CC1` (stereo not shown) [Example 237] it is 832%.

As for `O=C(NC1CCC1)N1CCC(n2ncc3cc(OC(F)(F)F)ccc32)CC1` [Example 299], the “α7PAM (%) @ 10 μmol/L” value is 302%.

On to `Cc1cccc2c1cnn2C1CCN(C(=O)NC2CCC(F)(F)CC2)CC1` [Example 93], for which the “α7PAM (%) @ 10 μmol/L” value is 934%.
